Marks after values point to notes of the source that are not given here. Blank lines part the entries; values can stand above or below the molecule they belong to. Positions of bridges follow the written chain, without caps; N, C: chain ends. Non-standard residues stand in square brackets, D forms with d. Residues, ends and D or L forms follow the SMILES beside them. No end group written: not given here.
Experiments:
[1] = tested on: chemokine-induced THP-1 migration (MCP-1, MIP1α, IL8, SDF1α); experiment: Trans-well THP-1 migration assay, across the chemokines tested; type: cell-based, human; conditions: for selectivity ratio (CC versus CXC chemokines): >1 = greater inhibition of CC chemokines, <1 = of CXC chemokines; for CC SPECIFICITY: Table 7, average inhibitory ED50 versus SDF1 and IL8 divided by average inhibitory ED50 versus MCP-1 and MIP1α
Method: To determine whether an agent inhibits a chemokine-induced activity, such as macrophage recruitment, varying amounts of the agent are mixed with cells in the presence of a known chemoattractant. […] Chemokine (such as MCP-1, MIP1α, IL8 or SDF-1α), at a concentration known to cause significant migration of THP-1 cells in the trans-well migration assay, is placed in the lower compartment (FIG. 1). […] After incubation, the cells are gently removed from the top of the filter with a pipette, 20 μl of 20 mM EDTA in simple PBS is added into each top well, and incubated for 20 minutes at 4° C. The filter is carefully flushed with media using a gentle flow, and removed. […] The media is carefully aspirated from each well, and the converted dye is solubilized by 20 μl of DMSO. Absorbance of converted dye is measured at a wavelength of 595 nm using an ELISA plate reader. The number of migrated cells in each well is then determined by interpolation of the standard curve (see also Imai et al., J. Biol. Chem., 272, 15036 (1997)). […] The framed filter was aligned with the holes in the corner of the filter frame and placed over the wells. Five×10^4 THP-1 cells in 25 μl of RPMI-1640 culture media were added to the upper compartment. Peptides were dissolved in Milli Q water and then serially diluted in culture medium. In most cases, the serially diluted peptides were added to the upper compartment of the chemotaxis chamber. […] After incubation, the cells were gently removed from the top of the filter with a pipette, 20 μl of 20 mM EDTA in PBS was added into each top well, and the mixture was incubated for 20 minutes at 4° C. The filter was then carefully flushed with media using a gentle flow, and removed. […] The media was carefully aspirated from each well, and the converted dye was solubilized by 20 μl of DMSO. Absorbance of converted dye was measured at a wavelength of 595 nm using an ELISA plate reader. […] Representative chemokines included a beta-chemokine (“CC”), MIP-1α, and two alpha-chemokines (“CXC”), IL-8 and SDF-1α. […]

[2] = molecular target: T1, Duffy Antigen Receptor for Chemokines (DARC) (Homo sapiens, UniProt Q16570); experiment: DARC binding: competition with 125I-labeled MCP-1 on red blood cells; conditions: for DUFFY SELECTIVITY: estimated ka for binding to red blood cells divided by average inhibitory ED50 versus each of the chemokines
T1 sequence (Q16570 1-336): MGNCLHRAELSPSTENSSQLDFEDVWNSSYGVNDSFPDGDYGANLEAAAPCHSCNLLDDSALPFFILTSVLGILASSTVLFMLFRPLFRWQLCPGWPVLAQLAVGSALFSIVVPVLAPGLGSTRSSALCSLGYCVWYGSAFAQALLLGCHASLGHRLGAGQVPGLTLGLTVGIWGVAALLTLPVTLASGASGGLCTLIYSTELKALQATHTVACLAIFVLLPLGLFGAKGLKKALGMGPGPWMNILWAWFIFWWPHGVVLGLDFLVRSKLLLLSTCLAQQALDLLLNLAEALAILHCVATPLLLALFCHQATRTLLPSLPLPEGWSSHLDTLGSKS

[3] = tested on: MCP-1 induced THP-1 migration; experiment: Trans-well THP-1 migration assay, MCP-1 as chemoattractant; type: cell-based, human; conditions: for IC50: derivatives of leu4ile11peptide 3, read-out: MCP-1 inhibitory activity in the THP-1 transwell assay
Method: (§1) FIG. 1 is a schematic of the trans-well migration assay. In most experiments, the peptide (wavy line) is added to the upper well with about 50,000 cells (O). The upper and lower wells are separated by a 5 μm or 8 μm pore size PVP-free membrane (- - - -). Chemokine (●) is added to the lower well. After 4 hours, the number of cells that have migrated through the membrane are measured (◯ in lower well).
To determine whether an agent inhibits a chemokine-induced activity, such as macrophage recruitment, varying amounts of the agent are mixed with cells in the presence of a known chemoattractant. For example, a range of known concentrations of an agent, e.g., a chemokine peptide, is incubated with a defined number (e.g., 10^4-10^6) of human THP-1 monocyte cells in individual wells of the top compartment of a trans-well plate. Chemokine (such as MCP-1, MIP1α, IL8 or SDF-1α), at a concentration known to cause significant migration of THP-1 cells in the trans-well migration assay, is placed in the lower compartment (FIG. 1). Cells are then incubated at 37° C. for a period sufficient to allow migration, e.g., 4 hours. After incubation, the cells are gently removed from the top of the filter with a pipette, 20 μl of 20 mM EDTA in simple PBS is added into each top well, and incubated for 20 minutes at 4° C. The filter is carefully flushed with media using a gentle flow, and removed. A standard curve consisting of a two-fold dilution series of THP-1 cells (in 29 μl) is prepared to accurately quantify the number of cells that have migrated. Migrated cells are stained with 3 μl of MTT stock dye solution which is added directly into each well (5 mg/ml in RPMI-1640 without phenol red, Sigma Chemical Co.) and incubated at 37° C. for 4 hours. The media is carefully aspirated from each well, and the converted dye is solubilized by 20 μl of DMSO. Absorbance of converted dye is measured at a wavelength of 595 nm using an ELISA plate reader. The number of migrated cells in each well is then determined by interpolation of the standard curve (see also Imai et al., J. Biol. Chem., 272, 15036 (1997)).
(§2) Any method suitable for counting cells can be used, for example, counting with a hemocytometer, incubation of the cells with MTT (see above), or FACS analysis. A negative control assay is also performed, using TGF-β or another non-chemokine chemoattractant (e.g., IL1β or TNFα). To assess whether the agent is cytotoxic, the same concentrations of agent are incubated with THP-1 cells. Agents which 1) are not cytotoxic at levels which inhibit migration, 2) are ineffective at inhibiting the negative control-induced migration, and 3) reduce or inhibit chemokine-induced THP-1 migration, are agents which fall within the scope of the invention.
(§3) For this assay, THP-1 cells were maintained at a density of 4×10^5 cells per ml in RPMI-1640 supplemented with 10% fetal calf serum+20 μM 2-mercaptoethanol. Chemotaxis was induced in a 96-well disposable chemotaxis chamber fitted with a […] polycarbonate filter (PVP free, ChemoTX, Neuroprobe Inc., Cabin John). Twenty-nine μl of chemoattractant (recombinant human chemokine; 50 ng/ml, i.e., 5.9 nM) or control (100 ng/ml TGFβ) was added to the lower compartment of each well. The framed filter was aligned with the holes in the corner of the filter frame and placed over the wells. Five×10^4 THP-1 cells in 25 μl of RPMI-1640 culture media were added to the upper compartment. Peptides were dissolved in Milli Q water and then serially diluted in culture medium. In most cases, the serially diluted peptides were added to the upper compartment of the chemotaxis chamber. The chamber was incubated at 37° C. in a humidified atmosphere of 5% CO2 for 4 hours.
After incubation, the cells were gently removed from the top of the filter with a pipette, 20 μl of 20 mM EDTA in PBS was added into each top well, and the mixture was incubated for 20 minutes at 4° C. The filter was then carefully flushed with media using a gentle flow, and removed. […]

[4] = tested on: IL8 induced THP-1 migration; experiment: Trans-well THP-1 migration assay, IL8 as chemoattractant; type: cell-based, human
Method: as §1
(§4) To determine whether an agent inhibits a chemokine-induced activity, such as macrophage recruitment, varying amounts of the agent are mixed with cells in the presence of a known chemoattractant. For example, a range of known concentrations of an agent, e.g., a chemokine peptide, is incubated with a defined number (e.g., 10^4-10^6) of human THP-1 monocyte cells in individual wells of the top compartment of a trans-well plate. […] A standard curve consisting of a two-fold dilution series of THP-1 cells (in 29 μl) is prepared to accurately quantify the number of cells that have migrated. […] Absorbance of converted dye is measured at a wavelength of 595 nm using an ELISA plate reader. The number of migrated cells in each well is then determined by interpolation of the standard curve (see also Imai et al., J. Biol. Chem., 272, 15036 (1997)). […]

[5] = tested on: SDF-1α induced THP-1 migration; experiment: Trans-well THP-1 migration assay, SDF-1α as chemoattractant; type: cell-based, human
Method: as §1, §4

[6] = tested on: TGFβ1 induced THP-1 migration; experiment: Trans-well THP-1 migration assay, TGFβ1 as non-chemokine control chemoattractant; type: cell-based, human; conditions: Table 6; n.s. = no statistically significant inhibition, even at 100 μM
Method: as §2
as §3, with “In most cases, the serially diluted peptides were added to the upper compartment of the chemotaxis chamber. The chamber was incubated at 37° C. in a humidified atmosphere of 5% CO2 for 4 hours.” left out
After incubation, the cells were gently removed from the top of the filter with a pipette, 20 μl of 20 mM EDTA in PBS was added into each top well, and the mixture was incubated for 20 minutes at 4° C. […] A standard curve was prepared to accurately quantify the number of THP-1 cells that had migrated. […] Absorbance of converted dye was measured at a wavelength of 595 nm using an ELISA plate reader. The number of cells that had migrated in each well was determined by interpolation of the standard curve.
To investigate the receptor specificity of peptide 3 inhibition, the ED50 was determined for peptide 3(1-12)[MCP-1] […]

[7] = Table 6, n.s. = no statistically significant inhibition

Molecule: EICADPKQKWIQ [Ile11peptide 3]
selectivity ratio (CC versus CXC chemokines) [1]: 0.9
CC SPECIFICITY [1]: 0.9

DUFFY SELECTIVITY ([2]; Table 7): 8.82
Molecule: -CQVWKQKPDA C- ([dC][dQ][dV][dW][dK][dQ][dK][dP][dD][dA][dC]; disulfide 1-11) [CRD-Cys13pep3[3-12]]

Molecule: CADPKQKWVQ [Peptide 3[3-12]]
CC SPECIFICITY [1]: 1.2
DUFFY SELECTIVITY ([2]; Table 7): 1.21

DUFFY SELECTIVITY ([2]; Table 7): 0.59
Molecule: EICADPSEEWVQ [Ser7Glu8Glu9pep 3]
CC SPECIFICITY [1]: 1.6

Molecule: CLDPKKEWIQ [SEE]
ED50 versus MCP1, THP-1 migration [3, 7]: n.s.
ED50 versus IL8, THP-1 migration [4, 7]: n.s.
ED50 versus SDF1α, THP-1 migration [5, 7]: n.s.
ED50 versus TGFβ1, THP-1 migration [6]: n.s.
specificity for the cognate chemokine over the other chemokines tested [1]: > 100 fold
CC SPECIFICITY [1]: >100

DUFFY SELECTIVITY ([2]; Table 7): 2.94
DARC specificity ratio / Duffy selectivity ([2]; estimated ka for association with DARC divided by the ED50 for biological activity): about 3.0
Molecule: KQKWVQ [Peptide 3[7-12]]
selectivity ratio (CC versus CXC chemokines) [1]: 1.1
CC SPECIFICITY [1]: 1.0

IC50 [3]: 0.2 to 0.4 µM
DUFFY SELECTIVITY ([2]; Table 7): 4.59
Molecule: CQVWKQKPDAC [LRD-Cys13leu4ile11pep3[3-12]]

IC50 [3]: 1 to 5 µM
DARC binding, in words [2]: essentially no DARC binding capacity
Molecule: EICLDPKQKWIQ [Leu4ile11peptide 3]
concentrations inhibiting MCP1 induced migration [3]: around 1 μM
potency as an inhibitor of MCP-1 signaling relative to peptide 3(1-12)[MCP-1] [3]: approximately 5 fold
potency as an inhibitor of CC chemokines relative to peptide 3(1-12)[MCP-1] [1]: approximately 5 fold
selectivity ratio (CC versus CXC chemokines) [1]: 2.0
CC SPECIFICITY [1]: 2.0

Molecule: WIQ
CC SPECIFICITY [1]: 1.0

Molecule: KLK [cognate tripeptide from SDF1]
inhibition of SDF1, in words ([5]; THP-1 migration): specific and potent inhibitor
CC SPECIFICITY [1]: <0.1

Molecule: TTT [reference compound]
inhibition of THP-1 cell migration induced by MCP-1, MIP1α, IL-8 and SDF1α, in words [1]: None of these significantly inhibited

Molecule: KEN [cognate tripeptide from IL8]
inhibition of IL8, in words ([4]; THP-1 migration): specific and potent inhibitor
CC SPECIFICITY [1]: <0.1

Molecule: Leu4ile11peptide 3(3-12)[MCP-1]: leu4ile11 variant of peptide 3(3-12)[MCP-1] (CLDPKKEWIQ)
affinity relative to peptide 3(1-12)[MCP-1] ([1]; in words): higher affinity peptide analog

Molecule: DYFETSSQCSKPGV [Pep2[MIP1α]]
Kd [2]: > 50 µM
DUFFY SELECTIVITY (peptide 2 family) ([2]; Table 7, ka for binding to red blood cells divided by the ka for binding THP-1 cells): >100^d

Molecule: CC[C@H](C)[C@H](NC(=O)[C@H](C)NC(=O)[C@H](CC(=O)O)NC(=O)[C@@H]1CCCN1C(=O)[C@H](CCC(N)=O)NC(=O)[C@H](C)N)C(=O)N[C@@H](CC(N)=O)C(=O)N[C@@H](C)C(=O)N1CCC[C@H]1C(=O)N[C@H](C(=O)N[C@H](C(=O)N[C@@H](CS)C(=O)N[C@@H](CS)C(=O)O)[C@@H](C)O)C(C)C [Peptide 1] (H-AQPDAINAPVTCC-OH)
Kd [2]: > 100 µM

Molecule: GGR [reference compound]
inhibition of THP-1 cell migration induced by MCP-1, MIP1α, IL-8 and SDF1α, in words [1]: None of these significantly inhibited

Molecule: APG [reference compound]
inhibition of THP-1 cell migration induced by MCP-1, MIP1α, IL-8 and SDF1α, in words [1]: None of these significantly inhibited

Molecule: EICADP [Peptide 3[1-6]]
CC SPECIFICITY [1]: 0.7

Kd [2]: > 50 µM
Molecule: NCCCC[C@H](NC(=O)[C@H](CCC(N)=O)NC(=O)[C@@H](N)CCCCN)C(=O)O [KQK]

Molecule: RGD [reference compound]
inhibition of THP-1 cell migration induced by MCP-1, MIP1α, IL-8 and SDF1α, in words [1]: None of these significantly inhibited

Molecule: EICLDPKQKWVQ [Leu4peptide 3]
increase in potency as an inhibitor of CXC chemokines compared with peptide 3(1-12)[MCP-1] [1]: approximately 4 fold
selectivity ratio (CC versus CXC chemokines) [1]: 0.37
CC SPECIFICITY [1]: 0.4

DUFFY SELECTIVITY ([2]; Table 7): 2.00
Molecule: EICADPSQKWVQ [Ser7peptide 3]
selectivity ratio (CC versus CXC chemokines) [1]: 0.5
CC SPECIFICITY [1]: 0.5
